Results as given in patent publication US6015805A, “17β-nitro-11β-arylisteroids and their derivatives having agonist or antagonist hormonal properties” (Research Triangle Research North Carolina, priority 1999, dated 2000).

Columns and labels:
[1] = biological target: T1, glucocorticoid receptor (rGR) (Oryctolagus cuniculus, UniProt P59667); assay: Receptor binding (rabbit), glucocorticoid receptor; details: relative to dexamethasone = 100
T1 construct: the source of the glucocorticoid receptor was the thymus of the estrogen-primed immature female rabbit; from tissue; host or cells: thymus of the estrogen-primed immature female rabbit
T1 sequence (P59667 1-772): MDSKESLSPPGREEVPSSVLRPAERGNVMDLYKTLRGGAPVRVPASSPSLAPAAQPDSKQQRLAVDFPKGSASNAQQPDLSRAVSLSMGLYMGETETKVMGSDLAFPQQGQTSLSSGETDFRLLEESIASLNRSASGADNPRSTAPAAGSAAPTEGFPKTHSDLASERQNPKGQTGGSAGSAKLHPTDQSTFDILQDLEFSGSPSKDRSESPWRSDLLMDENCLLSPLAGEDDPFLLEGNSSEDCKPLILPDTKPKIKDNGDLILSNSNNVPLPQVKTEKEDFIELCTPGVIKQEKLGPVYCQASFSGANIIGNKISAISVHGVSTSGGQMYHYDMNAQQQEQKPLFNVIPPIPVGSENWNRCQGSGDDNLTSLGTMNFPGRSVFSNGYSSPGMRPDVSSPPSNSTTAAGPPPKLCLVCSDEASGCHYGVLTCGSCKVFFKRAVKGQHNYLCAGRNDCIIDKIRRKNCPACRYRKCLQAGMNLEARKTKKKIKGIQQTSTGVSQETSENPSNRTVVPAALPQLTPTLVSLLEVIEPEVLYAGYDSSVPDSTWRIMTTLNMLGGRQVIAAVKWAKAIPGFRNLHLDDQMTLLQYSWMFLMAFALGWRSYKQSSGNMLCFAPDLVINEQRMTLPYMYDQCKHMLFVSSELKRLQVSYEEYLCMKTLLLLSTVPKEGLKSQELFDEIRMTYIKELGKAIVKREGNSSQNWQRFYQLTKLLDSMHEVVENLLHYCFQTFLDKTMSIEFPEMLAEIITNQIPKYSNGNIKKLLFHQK
Procedure: The affinity of the compounds for hormone receptors for progestins and glucocorticoids from rabbits was determined by standard procedures similar to those that have been described in C. E. Cook, et al., Human Reproduction, Volume 9, supplement 1, pp. 32-39 (1994). However, the source of the glucocorticoid receptor was the thymus of the estrogen-primed immature female rabbit. The affinity of the compounds for the human progesterone hormone receptor was determined by standard procedures similar to those that have been described in Horwitz, et al., Cell, 28: 633-42 (1982) and Mockus, et al., Endocrinology, 110: 1564-71 (1982). The receptor was obtained in cytosol from human T-47D breast cells and [^3 H]-R5020 was used as the radioligand. T47D cells (1 billion/mL) were homogenized in TEDG buffer (10 mM Tris, 1.5 mM EDTA, 1 mM dithiothreitol, 1 mM sodium molybdate, and 10% glycerol) using a Dounce pestle A, and the homogenate was centrifuged at 34,000×g for 1 hour. The supernatant was stored at -80° C. An aliquot of receptor preparation was combined with test compound, 0.4 nM [^3 H]-R5020, and TEDG buffer to a final volume of 150 ,μL and incubated for 4 hours at 4° C. in microtiter plates. At the end of incubation 40 μL 40% polyethylene glycol and 15 μL 1% human gamma globulin was added to the incubate and the contents of each well were harvested onto double thick B filter mats (Wallac LKB) using a TomTec harvester. A film of Meltilux scintillant wax was applied to the dried filter mats and the mats were counted in a scintillation counter to determine inhibition of [^3 H]-R5020 binding. Data are expressed as lC50 values, i.e., the concentration of compound that inhibits radioligand binding by 50%.

[2] = tested on: rabbits; assay: McGinty assay (progestational activity, test compound alone); format: in vivo, rabbit; parameters: key: McPhail scoring scale for progestational endometrial response
Procedure: Progestational activity and antiprogestational activity were determined in rabbits by means of the McGinty test (test compound alone, procedure of McGinty et al., Endocrinology, 24: 829-832 (1939)) or anti-McGinty test (test compound plus progesterone, procedure of Tamara et al., Jpn. J. Fertil Steril 24: 48-81 (1979)). Results were scored according to McPhail (McPhail, J Physiol., 83: 146 (1934)). These are standard procedures known to those skilled in the art. The results of these assays are shown in Tables 4 (agonist activity) and 5 (antagonist activity). […] Physiol, 83: 146 (1934)).

[3] = tested on: human T-47D breast cells; assay: T47D cell proliferation, agonist format; format: cell-based; details: maximum % stimulation at any dose, 0.01 to 10 nM
Procedure: Human T-47D breast cells grown in nutrient media were incubated with the standard progestin R5020 alone or with R5020 plus test compound and then assessed by standard procedures for proliferation using incorporation of [^3 H]-thymidine as the measurement. […] The maximum % inhibition (a measure of the efficacy of the compounds) is also given. In the agonist format of this assay the compounds were tested at concentrations ranging from 0.01 to 10 nM and the maximum % stimulation at any dose is listed in Table 3.

Structure (SMILES)	Relative Binding Affinity, rGR, Relative Affinity (Dexamethasone) [1]	McPhail Index, McGinty Assay (Agonist) ([2]; dose 0.3 micrograms)	McPhail Index, McGinty Assay (Agonist) ([2]; dose 3 micrograms)	McPhail Index, McGinty Assay (Agonist) ([2]; dose 30 micrograms)	Emax [3]
CC1=[N+]([O-])C2(CC1)CCC1C3CCC4=CC(=O)CCC4=C3C(c3ccc(N(C)C)cc3)CC12C (stereo not drawn) [II 4-Me2 N H O H -- CH3, 3',4'-dihydro-11β-(4-(N,N-dimethylamino)phenyl)-5'-methyl-1'-oxo-spiro[estra-4,9-dien-17β,2'(2'H)-pyrrole]-3-one]	2	0 ± 0	0 ± 0	0 ± 0	
CN(C)c1ccc([C@H]2C[C@@]3(C)[C@@H](CC[C@]3(CCCO)[N+](=O)[O-])[C@@H]3CCC4=CC(=O)CCC4=C32)cc1 [I 4-Me2 N H O H --(CH2)3 OH, 11β-[4-(N,N-Dimethylamino)phenyl]-17α-(3-hydroxypropyl)-17β-nitroestra-4,9-dien-3-one]	74	0 ± 0	0 ± 0	0.03 ± 0.057	33%
CC(=O)c1ccc([C@H]2C[C@@]3(C)[C@@H](CC[C@]3(CCCO)[N+](=O)[O-])[C@@H]3CCC4=CC(=O)CCC4=C32)cc1 [I 4-CH3 CO H O H --(CH2)3 OH, 11β-(4-Acetylphenyl)-17α-(3-hydroxypropyl)-17β-nitroestra-4,9-dien-3-one]	3	0 ± 0	0 ± 0	0 ± 0	41%
CC(=O)c1ccc([C@H]2C[C@@]3(C)[C@@H](CC[C@]3(/C=C/CO)[N+](=O)[O-])[C@@H]3CCC4=CC(=O)CCC4=C32)cc1 [I 4-CH3 CO H O H CH=CHCH2 OH, 11β-(4-acetylphenyl)-17α-(E-3-hydroxy-1-propenyl)-17β-nitroestra-4,9-dien-3-one]	4	0 ± 0	0 ± 0	0 ± 0	52%
CC#C[C@]1([N+](=O)[O-])CC[C@H]2[C@@H]3CCC4=CC(=O)CCC4=C3[C@@H](c3ccc(C(C)=O)cc3)C[C@@]21C [I 4-CH3 CO H O H --CC--CH3, 11β-(4-Acetylphenyl)-17β-nitro-17α-(1-propynyl)estra-4,9-dien-3-one]	20	0.13 ± 0.12	1.33 ± 0.35	0.97 ± 0.75	35%
